Measurements taken from patent US9957546B2, “Vivo detection of phospholipase activation” (THE TRUSTEES OF THE UNIVERSITY OF PENNSYLVANIA, priority 2008, dated 2018).

How the values were obtained:
PC-PLC [1] = target: PC-PLC (Bacillus cereus, UniProt P09598)
Protocol: Phospholipase (0.5 to 5 units) are added to 1 μM fluorophore-BHQ in PtdCho vesicles_(MF=0.05) to yield a final volume of 100 μL. Initial velocities are measured as a function of enzyme concentration. For bulk kinetics, an enzyme concentration that gives a linear response is chosen. The lipid dispersions is diluted in buffer such that the fluorophore-BHQ concentration varies from 0.3-3 μM. The temperature is held at 37° C. and phospholipase added to a total volume of 100 μL. The released fluorescence is measured and the initial velocities recorded as a function of bulk lipid concentration. A Lineweaver-Burke plot of 1/V0 vs 1/[S] gives a straight line with […] and y intercept of 1/Vmax. For interfacial kinetics, lipid dispersions of fluorophore-BHQ and PtdCho are diluted in Triton X-100 with the total lipid concentration held at 20 μM. The ratios of fluorophore-BHQ to PtdCho are held constant, but varied relative to the MF of Triton with a total MF of fluorophore-BHQ of =0.01-0.05). Initial velocities are recorded as a function of concentration, and kinetic parameters are calculated.
Activity, in RFU/min/mg, was measured as a function of D609 concentration after the addition of 0.5 U PC-PLC (FIG. 2D).

PC-PLC [2] = conditions: Amplex Red, resorufin fluorescence
Excerpt: To validate the presence of PC-PLC activity in DU145 tumor xenografts, the Amplex Red PC-PLC assay kit (Molecular Probes) was used to measure PC-PLC activity in extracts of excised tumors.

[3] = Incorporation of Pyro-PL into PtdCho vesicles (self quenching/aggregation); type: physicochemical; conditions: 1 μM Pyro-PL, [PtdCho]>200 μM
Protocol: A measured amount of Pyro-PL-BHQ or Pyro-PL (ε=110,000 M^−1 cm^−1 at 410 nm) was combined with PtdCho (chicken egg, Avanti Polar Lipids, Inc., Alabaster, Ala.) in chloroform and dried under a stream of nitrogen.
In order to determine the mole fraction (MF) at which all fluorophore can be assumed to be completely incorporated and intercalated into the PtdCho vesicles, an experiment was conducted in which the concentration of PtdCho was varied while Pyro-PL concentration was held constant at 1 μM (FIG. 4A). The fluorescence intensity increases as the Pyro-PL disperses into the PtdCho vesicles. The fluorescence plateaus at the point at which aggregation is negligible.

[4] = Tolerability of Pyro-PL in mice; type: in vivo
[5] = In vivo distribution of Pyro-PL (Maestro spectral deconvolution, ex vivo IVIS organ imaging); design: species or system mice
Protocol: Methods for separation of probe fluorescence and autofluorescence have been developed that result in a more accurate detection of in vivo probe fluorescence. In FIG. 11, mice injected with the permanently fluorescent Pyro-PL are imaged with the CRI Maestro System, and the resulting images resolved into probe and autofluorescence on the basis of emission spectrum deconvolution. These images confirm that Pyro-PL localizes in the tumor within minutes, and persists for about 3 hours, consistent with FIGS. 12A and 13A. By 2 hours, the probe is also being removed from circulation, with concentration first in the liver, and then in the intestine for excretion in the stool.

[6] = Quenching of Pyro fluorescence (fluorescence emission spectra); type: physicochemical
Excerpt: In Pyro-PL-BHQ, BHQ acts as an effective quencher of Pyro fluorescence, reducing the fluorescence emission relative to Pyro-PL between 25-fold (for λex=675, λem=725 nm) and 45-fold (for λex=418, λem=695 nm) (FIG. 14).

DU145 prostate cells = assay: Cell uptake and in situ activation, laser confocal microscopy; type: cell-based, human; conditions: 10 mM PB, 6 h

Sequence of PC-PLC (Bacillus cereus, UniProt P09598) (P09598 39-283 limits assumed): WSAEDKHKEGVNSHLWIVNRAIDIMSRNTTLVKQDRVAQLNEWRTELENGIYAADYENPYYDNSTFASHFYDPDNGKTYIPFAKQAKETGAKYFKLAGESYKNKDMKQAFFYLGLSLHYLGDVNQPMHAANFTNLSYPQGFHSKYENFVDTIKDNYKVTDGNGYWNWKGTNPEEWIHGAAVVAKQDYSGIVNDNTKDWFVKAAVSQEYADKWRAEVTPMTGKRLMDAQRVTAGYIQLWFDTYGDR

S=C([S-])OC1CC2CC1C1CCCC21.[K+] (stereo not drawn) [D609]
Inhibition of PC-PLC hydrolysis of Pyro-PL-BHQ at 500 μM D609 (PC-PLC [1]; 500 μM D609, 0.5 U PC-PLC): Complete inhibition
Fluorescence release from Pyro-PL-BHQ/PtdCho vesicles in presence of inhibitor (PC-PLC [1]; FIG. 3A): inhibited
IC50 (PC-PLC [1]; read-out: IC50 of inhibition of PC-PLC activity toward Pyro-PL-BHQ, 1 μM Pyro-PL-BHQ, MF 0.003 in egg-PtdCho dispersions, 0.5 U PC-PLC): 34 ± 8 µM
Ki (PC-PLC [1]; read-out: Ki (x-intercept of Km(app)/Vmax(app) vs. D609), Lineweaver-Burke plot of inhibition using 8, 50, 100 μM D609): 250 µM
PC-PLC activity in tumor extracts as a function of D609 concentration (PC-PLC [2]): decrease as a function of D609 concentration

C=Cc1c(C)c2cc3nc(c4c5[nH]c(cc6nc(cc1[nH]2)C(C)=C6CC)c(C)c5C(=O)C4)C(CCC(=O)OC(COC(=O)CCCCCCCCCCCCCCC)COP(=O)(O)OCCN)C3C (stereo not drawn) [Pyro-PL]
Pyro-PL mole fraction (MF) at which fluorescence plateaus (aggregation negligible) [3]: < 0.005
tolerability [4]: well tolerated by mice
organ fluorescence at 2 h ([5]; 2 h): majority of the fluorescence appears in the liver
organ fluorescence ex vivo at 24 h ([5]; IVIS, 24 h): major fluorescence persisted in the liver, kidney and digestive tract
time of accumulation in the tumor ([5]; Maestro system): ≤ 10 min

C=Cc1c(C)c2cc3nc(c4c5[nH]c(cc6nc(cc1[nH]2)C(C)=C6CC)c(C)c5C(=O)C4)C(CCC(=O)NCCCCCC(=O)OCC(COP(=O)([O-])OCC[N+](C)(C)C)OC(=O)CCCCCNC(=O)CCC1c2nc(cc4[nH]c(cc5nc(cc6[nH]c7c2CC(=O)c7c6C)C(CC)=C5C)c(C=C)c4C)C1C)C3C (stereo not drawn) [PyroPyro-PL]
quenching efficiency (second Pyro as acceptor) [6]: ~4 fold

phenylbutyrate [PB]
effect on Pyro-PL-BHQ fluorescence in cells (DU145 prostate cells): fluorescence is increased
